Data on three compounds can be found in patent US12138266B2, “Folate preparations” (APROFOL AG, priority 2018, dated 2024).

The subject of data set [1] is reconstructed skin models (epiCS). Description: Bioavailability: transport through reconstructed skin models into basal compartment (LC/MS). The class given is in vitro ADME, human. The source says:
In order to test the bioavailability in tissues such as skin, reconstructed skin models (epiCS, CS-1001, CellSystems, Troisdorf) were used which are generated from primary human keratinocytes. These models show a barrier very similar to human skin. They are regularly used as test models for the approval-relevant determination of corrosive or irritating effects of cosmetic raw materials. The skin models can usually be treated with finished products, as they are intended for use by the consumer. Nevertheless, before the skin models are treated with the test products, an assessment of the tolerability of the models is made to avoid overdosing.
The skin models were cultured on a porous membrane as mentioned above. The skin cells growing on it separate an apical compartment (with the skin model) from a basal compartment (with the nutrient medium). Mass transport from the apical to the basal compartment is thus almost exclusively possible through the cells. The only alternative to this is paracellular diffusion, which however, due to the functional tight junctions, is only possible for a few molecules and to a very limited extent. To determine the bioavailability of the products, the barrier is checked for leaks before use by means of resistance measurements. […] Suitable skin models are then treated topically with the test products. After 4 h, 8 h and 24 h, samples of the medium were taken in the basal part of the models to check for the presence and concentration of folates. Each test product and controls are tested at a concentration of three replicates each. The studies were repeated to obtain results from two independent runs. The determination of the folate contents of the media samples was started with the analysis of the 24 h values.
The analysis of the media samples was carried out by way of a LC/MS method established at a commercial service provider. The sensitivity of the method is in the range of 1 nmol/L. Before the start of the investigations, an estimate of the feasibility or a preliminary test was carried out in order to be able to assess the suitability of the method.
In addition, the topically applied amount was reduced to 50 μL each. In addition, in the main experiment, the lower compartment was not filled with medium (contains folic acid) but with 1 mL Hank balanced salt solution (without folic acid). Following a total of 24 hours incubation with the test substances, the skin models were again incubated with Resazurin to. […] In the main trial, two independent passes were completed.
In the lower compartment, 1 mL each of HBSS was initially charged. The results shown in the figures mentioned above were determined from 100 μL aliquots of this buffer amount.
In the apical compartment, 3 μmol of folate (solutions) or 0.3 μmol of folate are supplemented (in 50 μL).

Data set [2] deals with primary keratinocytes of human skin. Description: Scratch Assay (in vitro wound healing model). In kind it is cell-based. The following applies: for free wound surface in photographs: 0.1%. The source says:
To examine the effect of different folate preparations on wound healing the in vitro model Scratch Assay was employed. This in vitro model comprises the defined injuring of a closed cell layer and the subsequent regrowth of the cells to a closed layer in the presence of the test-substance compared to appropriate controls, i.e. (untreated) cells with no test-substance present.
The experimental procedure for the Scratch Assay was as follows: The employed cells are primary keratinocytes of human skin (C-12005, Promocell, Heidelberg, Germany). […] Three different dosages were then used for the Scratch Assay. Further, cells were cultivated in growth-limiting medium in order to show a possible growth promoting effect of the test substances. For the medium used (C-20011, Promocell, Heidelberg, Germany) a growth limitation could be achieved by either the omission or dilution of epidermal growth factor (EGF) or of a complex mixture of undefined factors derived from […] BPE). Usually, growth-limiting medium was achieved by the omission of EGF. For the actual Scratch Assay keratinocytes were cultivated in appropriate cell culture plates (6-well plates, 657160, Greiner BioOne, Frickenhausen, Germany) bearing position markings. Cells were grown to a closed monolayer. Then, cells were scratched with pipette tip along the position markings, thereby generating a cell free area (scratch, injury). Cell monolayers were washed to remove partially detached cells and then covered with medium comprising the test-substances in appropriate dosages. Regrowth of the cells into the cell free area was observed over time at 0 h, 6 h and 24 h and photographically documented at these times. Analysis was done by marking and calculating the cell-free area (software ImageJ) and comparing the calculated areas at the different time point. […]
FIGS. 4 and 5 show the cell-free area of the induced scratch after 6 h or 24 h. The measured values were expressed as a percentage of the starting area of the respective treatment group. […]

For data set [3] the test system is unchanged. The following applies: keratinocyte monolayer, MTT, 24 h; concentration based on the undiluted solution (2.5%) or the cream (=100%). The protocol: In a preliminary experiment, the usable dose was determined.
For this test, the keratinocytes were seeded on 96-well plates and incubated with five dilutions of the solutions or the cream for 24 h. Subsequently, a vital dye was added and finally, the colour change caused by the conversion of the vital dye in living cells was photometrically quantified.
FIG. 1 and FIG. 2 show the determination of the usable dosage of the test substances. Cytotoxicity test with keratinocytes in monolayer culture after conversion of the vital dye MTT by living cells. The concentration data are based on the undiluted solutions or the cream (=100%). Treatment time=24 h. Untreated cultures served as negative controls. SDS served as a positive control (“dead control”). N=6+SEM
IC70 values were calculated by nonlinear regression (Hill Slope, GraphPad Prism 5.04). The term IC70 denotes the concentration at which the viability of the treated cell culture is reduced to 70% of the untreated control. IC70 is often referred to as the border between toxicity and non-toxic effect.

For another data set, the system named is human skin. Description: Skin penetration determined by Raman spectroscopy on forearm of a subject. The class given is in vivo. The following applies: for Calcium levoleucovorin penetrated into the skin per area: surface to depth of 30 μm. Here is the method: In a further experiment it was examined if calcium levoleucovorin is able to penetrate skin. Penetration depth was determined by way of Raman spectroscopy. The measurement device was an inverse Raman microscope model 3510 with 60× oil immersion lens and evaluation software SkinTools of the company RiverD Rotterdam and the method were 10 profiles per application, measuring time of 5 seconds per measuring point, 7 steps of 2 μm, 4 steps of 4 μm, spectral range of 400-1800 cm^−1, at a laser excitation wavelength of 785 nm. Signals were generated with the software SkinTools that contains various skin and device specific spectra. The user can add their own spectra to the library. The evaluation is carried out via the CLS procedure (least squares method). The signals are output as a fit coefficient normalized to the fit coefficient of keratin.
For a quantitative indication of the result, a calibration must be carried out with standard series (see Tab. 1 and Tab. 2). First, the sensitivity of bovine serum albumin (BSA) is determined and the mass concentration BSA in g/ml is plotted against the BSA fit coefficient. A linear regression with fixed zero gives slope S. For the active substance, the molar concentration in mmol/ml is plotted against the drug coefficient multiplied by the BSA fit coefficient. This gives the slopes SA of the active ingredient. With the slopes, a so-called quantification factor of the drug can be created (SA/S=C). Multiplied by the factor C, the coefficient of fit of the active substance becomes the quantified value with the unit mmol/g of keratin.
The application of the drug or placebo (sodium gluconate) to the skin of a subject was done as follows: 20 μL was pipetted into an allergy patch and this was then stuck onto the forearm of a subject for a period of 30, 60, 120 and 240 minutes. At the end of the application time, the allergy patch was removed. Prior to determining the Raman profiles, the treated skin area was rubbed with a dry paper towel.

Turning to `N=C(N)NCCC[C@H](N)C(=O)O.N=C(N)NCCC[C@H](N)C(=O)O.Nc1nc2c(c(=O)[nH]1)N(C=O)[C@@H](CNc1ccc(C(=O)N[C@@H](CCC(=O)O)C(=O)O)cc1)CN2` [L-FTHF di arginine, 5-formyl-(6S)-tetrahydrofolic acid di L-arginine salt], the “methylfolate concentration in basal compartment (comparison)” value (from here on “methylfolate concentration … (comparison)”) in data set [1] (after 24 h) is given as “approximately half”. In addition, in data set [2] (after 24 h, versus standard medium and FBS control), the “regrowth of cells into cell-free area of scratch” value is “promoted dose-dependent reversal of “healing””. In data set [3], the “IC70 (concentration at which viability is reduced to 70% of the untreated control; usable dose)” value is given as 0.12%.

For the compound “5-methyl-(6S)-tetrahydrofolic acid di choline salt [L-MTHF di choline]”, the “methylfolate concentration … (comparison)” value in data set [1] (after 4 h, compared with models supplemented with L-FTHF or folate cream) is listed as “significantly higher concentrations”; in data set [1] (after 8 h) it was “highest concentrations”; in data set [1] (after 24 h) it was “significantly higher than the highest standard”. The “formylfolate concentration in recipient compartment (basal)” value in data set [1] (after 8 h) is on record as “cannot be detected”. In addition, the “formylfolate in basal compartment samples” value in data set [1] (after 24 h) is recorded as “cannot be detected”. In data set [1] (after 24 h, peak outside calibration line, absolute value uncertain), the “methylfolate concentration in basal compartment, maximum” value came out at 120 µmol/L. For the same compound, the “free wound surface in photographs” value in data set [2] (after 6 h) is given as “hardly any surface is overgrown”; in data set [2] (after 24 h) it was “it becomes difficult to mark a cell-free area”. In addition, in data set [3], the “IC70 (concentration at which viability is reduced to 70% of the untreated control; usable dose)” value stood at 0.14%.

Turning to “5-formyl-(6S)-tetrahydrofolic acid calcium salt [L-FTHF Ca]”, in data set [1] (after 24 h), the “folic acid concentration (comparison with other skin models)” value is “twice as high”. The “methylfolate concentration … (comparison)” value in data set [1] (after 24 h) is “relatively high”. Besides, in data set [1] (after 24 h, outside calibration line, absolute values uncertain), the “formylfolate concentration in basal compartment” value turned out to be 150 µmol/L. Moreover, in data set [1] (after 24 h supplementation), the “folic acid (folate) concentration in basal compartment” value is on record as “about 200 nmol/L”. The “IC70 (concentration at which viability is reduced to 70% of the untreated control; usable dose)” value in data set [3] is on record as 0.13%. In addition, the “concentration profile in skin over application time” value with human skin (30 to 240 minutes application time) is “tendency to increased calcium levoleucovorin concentration both in the top 5 μm and deeper layers of the skin”. Further, the Amount recovered is 3.76 +/− 2.82 % of amount applied in the data set on human skin (application period 30 min); 3.28 +/− 2.58 % of amount applied in the data set on human skin (application period 60 min); 6.3 +/− 8.22 % of amount applied with human skin (application period 120 min); 9.96 +/− 3.26 % of amount applied in the data set with human skin (application period 240 min, listed as Calcium levoleucovorin, calcium salt); 10 % of amount applied with human skin (application period 240 min, listed as calcium levoleucovorin, calcium salt). Besides, the “Calcium levoleucovorin penetrated into the skin per area” value is 0.37 +/− 0.27 μmol/cm^2 in the data set on human skin (application period 30 min), 0.32 +/− 0.25 μmol/cm^2 in the data set with human skin (application period 60 min), 0.62 +/− 0.8 μmol/cm^2 in the data set with human skin (application period 120 min) and 0.97 +/− 0.32 μmol/cm^2 with human skin (application period 240 min).
